Data published in ChEMBL document CHEMBL1201861, “Genomics of Drug Sensitity in Cancer screening data, Wellcome Trust Sanger Institute”.

Experiments:
Assay in all cases: cells
[1] = system: A388; format: functional, cell-based, Homo sapiens; conditions: Homo sapiens, A388;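 also: growth inhibition of human A388 cells, read out with a cell viability assay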
Description: SANGER: Inhibition of human A388 cell growth in a cell viability assay.

[2] = system: ALL-PO; format: functional, cell-based, Homo sapiens; conditions: Homo sapiens, ALL-PO;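 also: growth inhibition of ALL-PO cells, read out by a cell viability assay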
Description: SANGER: Inhibition of human ALL-PO cell growth in a cell viability assay.

[3] = system: JAR; format: functional, cell-based, Homo sapiens; conditions: Homo sapiens, JAR;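 also: growth inhibition of human JAR cells determined with a cell viability assay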
Description: SANGER: Inhibition of human JAR cell growth in a cell viability assay.

[4] = system: EW-1; format: functional, cell-based, Homo sapiens; conditions: Homo sapiens, EW-1;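 also: growth inhibition of the human EW-1 cell line, read out by a cell viability assay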
Description: SANGER: Inhibition of human EW-1 cell growth in a cell viability assay.

[5] = system: BV-173; format: functional, cell-based, Homo sapiens; conditions: Homo sapiens, BV-173
Description: SANGER: Inhibition of human BV-173 cell growth in a cell viability assay.

[6] = system: TE-8; format: functional, cell-based, Homo sapiens; conditions: Homo sapiens, TE-8;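 also: growth inhibition of TE-8 cells, measured with a cell viability readout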
Description: SANGER: Inhibition of human TE-8 cell growth in a cell viability assay.

[7] = system: KNS-42; format: functional, cell-based, Homo sapiens; conditions: Homo sapiens, KNS-42;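 also: growth inhibition of KNS-42 cells, read out with a cell viability assay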
Description: SANGER: Inhibition of human KNS-42 cell growth in a cell viability assay.

[8] = system: LOX IMVI; format: functional, cell-based, Homo sapiens; conditions: Homo sapiens, LOX IMVI
Description: SANGER: Inhibition of human LOXIMVI cell growth in a cell viability assay.

[9] = system: BB30-HNC; format: functional, cell-based, Homo sapiens; conditions: Homo sapiens, BB30-HNC;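 also: growth inhibition of the cultured cell line, read out by a cell viability assay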
Description: SANGER: Inhibition of human BB30-HNC cell growth in a cell viability assay.

[10] = system: 8-MG-BA; format: functional, cell-based, Homo sapiens; conditions: Homo sapiens, 8-MG-BA;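 also: growth inhibition of 8-MG-BA cells, read out with a cell viability assay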
Description: SANGER: Inhibition of human 8-MG-BA cell growth in a cell viability assay.

[11] = system: COLO-829; format: functional, cell-based, Homo sapiens; conditions: Homo sapiens, COLO-829
Description: SANGER: Inhibition of human COLO-829 cell growth in a cell viability assay.

[12] = system: LAN-6; format: functional, cell-based, Homo sapiens; conditions: Homo sapiens, LAN-6;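 also: growth inhibition of LAN-6 cells, determined with a cell viability assay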
Description: SANGER: Inhibition of human LAN-6 cell growth in a cell viability assay.

[13] = system: A253 cell line; format: functional, cell-based, Homo sapiens; conditions: Homo sapiens, A253;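 also: growth inhibition of A253 cells, read out with a cell viability assay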
Description: SANGER: Inhibition of human A253 cell growth in a cell viability assay.

[14] = system: DB; format: functional, cell-based, Homo sapiens; conditions: Homo sapiens, DB
Description: SANGER: Inhibition of human DB cell growth in a cell viability assay.

[15] = system: TE-5; format: functional, cell-based, Homo sapiens; conditions: Homo sapiens, TE-5;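 also: inhibition of cell growth, read out by a cell viability assay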
Description: SANGER: Inhibition of human TE-5 cell growth in a cell viability assay.

[16] = system: D-392MG; format: functional, cell-based, Homo sapiens; conditions: Homo sapiens, D-392MG
[17] = system: COLO-800; format: functional, cell-based, Homo sapiens; conditions: Homo sapiens, COLO-800;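 also: growth inhibition of COLO-800 cells, read out with a cell viability assay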
Description: SANGER: Inhibition of human COLO-800 cell growth in a cell viability assay.

[18] = system: COLO-668; format: functional, cell-based, Homo sapiens; conditions: Homo sapiens, COLO-668
Description: SANGER: Inhibition of human COLO-668 cell growth in a cell viability assay.

[19] = system: EW-11; format: functional, cell-based, Homo sapiens; conditions: Homo sapiens, EW-11;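 also: growth inhibition of human EW-11 cells, measured with a cell viability assay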
Description: SANGER: Inhibition of human EW-11 cell growth in a cell viability assay.

[20] = system: HDLM-2; format: functional, cell-based, Homo sapiens; conditions: Homo sapiens, HDLM-2;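 also: cell viability assay measuring suppression of HDLM-2 proliferation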
Description: SANGER: Inhibition of human HDLM-2 cell growth in a cell viability assay.

[21] = system: EOL1; format: functional, cell-based, Homo sapiens; conditions: Homo sapiens, EOL1;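 also: growth inhibition of EoL-1 cells, read out by a cell viability assay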
Description: SANGER: Inhibition of human EoL-1-cell cell growth in a cell viability assay.

[22] = system: NCI-H1299; format: functional, cell-based, Homo sapiens; conditions: Homo sapiens, NCI-H1299;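 also: growth inhibition of human NCI-H1299 cells, read out by a cell viability assay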
Description: SANGER: Inhibition of human NCI-H1299 cell growth in a cell viability assay.

[23] = system: COLO-320-HSR; format: functional, cell-based, Homo sapiens; conditions: Homo sapiens, COLO-320-HSR;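 also: growth inhibition of COLO-320-HSR cells, determined with a cell viability assay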
Description: SANGER: Inhibition of human COLO-320-HSR cell growth in a cell viability assay.

[24] = system: KURAMOCHI; format: functional, cell-based, Homo sapiens; conditions: Homo sapiens, KURAMOCHI;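 also: growth inhibition of KURAMOCHI cells, read out with a cell viability assay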
Description: SANGER: Inhibition of human KURAMOCHI cell growth in a cell viability assay.

[25] = system: LS-123; format: functional, cell-based, Homo sapiens; conditions: Homo sapiens, LS-123
Description: SANGER: Inhibition of human LS-123 cell growth in a cell viability assay.

[26] = system: NCI-H720; format: functional, cell-based, Homo sapiens; conditions: Homo sapiens, NCI-H720;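 also: growth inhibition of human NCI-H720 cells determined by a cell viability assay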
Description: SANGER: Inhibition of human NCI-H720 cell growth in a cell viability assay.

[27] = system: MZ7-mel; format: functional, cell-based, Homo sapiens; conditions: Homo sapiens, MZ7-mel;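 also: growth inhibition of human MZ7-mel cells, measured by a cell viability assay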
Description: SANGER: Inhibition of human MZ7-mel cell growth in a cell viability assay.

[28] = system: LB771-HNC; format: functional, cell-based, Homo sapiens; conditions: Homo sapiens, LB771-HNC;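 also: growth inhibition of LB771-HNC human cells, read out with a cell viability assay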
Description: SANGER: Inhibition of human LB771-HNC cell growth in a cell viability assay.

[29] = system: COLO-684; format: functional, cell-based, Homo sapiens; conditions: Homo sapiens, COLO-684
Description: SANGER: Inhibition of human COLO-684 cell growth in a cell viability assay.

[30] = system: SHP77; format: functional, cell-based, Homo sapiens, SHP-77; conditions: Homo sapiens, SHP77;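 also: growth inhibition of human SHP-77 cells measured by a cell viability assay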
Description: SANGER: Inhibition of human SHP-77 cell growth in a cell viability assay.

[31] = system: TE-12; format: functional, cell-based, Homo sapiens; conditions: Homo sapiens, TE-12;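 also: growth inhibition of TE-12 cells, read out by a cell viability assay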
Description: SANGER: Inhibition of human TE-12 cell growth in a cell viability assay.

[32] = system: ES8; format: functional, cell-based, Homo sapiens; conditions: Homo sapiens, ES8;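 also: growth inhibition of human ES8 cells, read out with a cell viability assay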
Description: SANGER: Inhibition of human ES8 cell growth in a cell viability assay.

[33] = system: NB17; format: functional, cell-based, Homo sapiens; conditions: Homo sapiens, NB17;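 also: growth inhibition of NB17 cells, read out with a cell viability assay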
Description: SANGER: Inhibition of human NB17 cell growth in a cell viability assay.

[34] = system: HL-60; format: functional, cell-based, Homo sapiens; conditions: Homo sapiens, HL-60;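 also: growth inhibition of human HL-60 cells, read out with a cell viability assay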
Description: SANGER: Inhibition of human HL-60 cell growth in a cell viability assay.

[35] = system: ML-2; format: functional, cell-based, Homo sapiens; conditions: Homo sapiens, ML-2;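 also: growth inhibition of ML-2 cells, measured with a cell viability readout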
Description: SANGER: Inhibition of human ML-2 cell growth in a cell viability assay.

[36] = system: TE-9; format: functional, cell-based, Homo sapiens; conditions: Homo sapiens, TE-9;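 also: cell growth inhibition, measured with a cell viability readout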
Description: SANGER: Inhibition of human TE-9 cell growth in a cell viability assay.

[37] = system: KS-1; format: functional, cell-based, Homo sapiens; conditions: Homo sapiens, KS-1;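 also: growth inhibition of KS-1 cells, read out with a cell viability assay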
Description: SANGER: Inhibition of human KS-1 cell growth in a cell viability assay.

[38] = system: GAK; format: functional, cell-based, Homo sapiens; conditions: Homo sapiens, GAK;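 also: cell growth inhibition read out by a cell viability assay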
Description: SANGER: Inhibition of human GAK cell growth in a cell viability assay.

[39] = system: HH; format: functional, cell-based, Homo sapiens; conditions: Homo sapiens, HH
Description: SANGER: Inhibition of human HH cell growth in a cell viability assay.

[40] = system: HCC 2998; format: functional, cell-based, Homo sapiens; conditions: Homo sapiens, HCC 2998;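 also: growth inhibition of human HCC2998 cells, measured with a cell viability read-out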
Description: SANGER: Inhibition of human HCC2998 cell growth in a cell viability assay.

[41] = system: Calu-6; format: functional, cell-based, Homo sapiens; conditions: Homo sapiens, Calu-6;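 also: growth of human Calu-6 cells, read out by a cell viability assay, IC50 marking inhibition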
Description: SANGER: Inhibition of human Calu-6 cell growth in a cell viability assay.

[42] = system: no-11; format: functional, cell-based, Homo sapiens; conditions: Homo sapiens;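 also: growth inhibition of human NO-11 cells, read out with a cell viability assay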
Description: SANGER: Inhibition of human no-11 cell growth in a cell viability assay.

[43] = system: NCI-H1395; format: functional, cell-based, Homo sapiens; conditions: Homo sapiens, NCI-H1395;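 also: cell viability assay read-out quantifying reduced proliferation of human NCI-H1395 cells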
Description: SANGER: Inhibition of human NCI-H1395 cell growth in a cell viability assay.

[44] = system: EW-16; format: functional, cell-based, Homo sapiens; conditions: Homo sapiens, EW-16;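 also: growth inhibition of human EW-16 cells, read out as cell viability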
Description: SANGER: Inhibition of human EW-16 cell growth in a cell viability assay.

[45] = system: D283 Med; format: functional, cell-based, Homo sapiens; conditions: Homo sapiens, D283 Med
Description: SANGER: Inhibition of human D-283MED cell growth in a cell viability assay.

[46] = system: SW982; format: functional, cell-based, Homo sapiens; conditions: Homo sapiens, SW982;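 also: growth inhibition of SW982 cells, read out with a cell viability assay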
Description: SANGER: Inhibition of human SW982 cell growth in a cell viability assay.

[47] = system: HCE-4; format: functional, cell-based, Homo sapiens; conditions: Homo sapiens, HCE-4;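 also: cell viability assay measuring inhibition of growth in the human HCE-4 cell line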
Description: SANGER: Inhibition of human HCE-4 cell growth in a cell viability assay.

[48] = system: CGTH-W-1; format: functional, cell-based, Homo sapiens; conditions: Homo sapiens, CGTH-W-1;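 also: growth inhibition of human CGTH-W-1 cells measured by cell viability assay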
Description: SANGER: Inhibition of human CGTH-W-1 cell growth in a cell viability assay.

[49] = system: KM-H2; format: functional, cell-based, Homo sapiens; conditions: Homo sapiens, KM-H2;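 also: growth inhibition of KM-H2 cells, read out by a cell viability assay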
Description: SANGER: Inhibition of human KM-H2 cell growth in a cell viability assay.

COc1cc2c(Nc3ccc(NC(=O)c4ccccc4)cc3)ncnc2cc1OCCCN1CCOCC1
IC50 [1]: 3500 nM | IC50 [2]: 2670 nM | IC50 [3]: > 4000 nM | IC50 [4]: > 4000 nM | IC50 [5]: 1760 nM | IC50 [6]: 2490 nM | IC50 [7]: > 4000 nM | IC50 [8]: > 4000 nM | IC50 [9]: 2540 nM | IC50 [10]: > 4000 nM | IC50 [11]: 2640 nM | IC50 [12]: > 4000 nM | IC50 [13]: > 4000 nM | IC50 [14]: > 4000 nM | IC50 [15]: > 4000 nM | IC50 [16]: > 4000 nM | IC50 [17]: 1700 nM | IC50 [18]: > 4000 nM | IC50 [19]: > 4000 nM | IC50 [20]: > 4000 nM | IC50 [21]: 187 nM | IC50 [22]: > 4000 nM | IC50 [23]: > 4000 nM | IC50 [24]: > 4000 nM | IC50 [25]: > 4000 nM | IC50 [26]: 1210 nM | IC50 [27]: > 4000 nM | IC50 [28]: > 4000 nM | IC50 [29]: > 4000 nM | IC50 [30]: > 4000 nM | IC50 [31]: > 4000 nM | IC50 [32]: 498 nM | IC50 [33]: > 4000 nM | IC50 [34]: 2590 nM | IC50 [35]: > 4000 nM | IC50 [36]: > 4000 nM | IC50 [37]: > 4000 nM | IC50 [38]: > 4000 nM | IC50 [39]: > 4000 nM | IC50 [40]: > 4000 nM | IC50 [41]: > 4000 nM | IC50 [42]: > 4000 nM | IC50 [43]: > 4000 nM | IC50 [44]: 3230 nM | IC50 [45]: > 4000 nM | IC50 [46]: > 4000 nM | IC50 [47]: > 4000 nM | IC50 [48]: 2620 nM | IC50 [49]: > 4000 nM

CC1(C)CNc2cc(NC(=O)c3cccnc3NCc3ccncc3)ccc21 [MOTESANIB]
IC50 [1]: > 2000 nM | IC50 [2]: > 2000 nM | IC50 [3]: > 2000 nM | IC50 [4]: > 2000 nM | IC50 [5]: > 2000 nM | IC50 [6]: > 2000 nM | IC50 [7]: > 2000 nM | IC50 [8]: > 2000 nM | IC50 [9]: > 2000 nM | IC50 [10]: > 2000 nM | IC50 [11]: > 2000 nM | IC50 [12]: > 2000 nM | IC50 [13]: > 2000 nM | IC50 [14]: > 2000 nM | IC50 [15]: > 2000 nM | IC50 [16]: > 2000 nM | IC50 [17]: > 2000 nM | IC50 [18]: > 2000 nM | IC50 [19]: > 2000 nM | IC50 [20]: > 2000 nM | IC50 [21]: < 7.81 nM | IC50 [22]: > 2000 nM | IC50 [23]: > 2000 nM | IC50 [24]: > 2000 nM | IC50 [25]: > 2000 nM | IC50 [26]: > 2000 nM | IC50 [27]: > 2000 nM | IC50 [28]: > 2000 nM | IC50 [29]: > 2000 nM | IC50 [30]: > 2000 nM | IC50 [31]: > 2000 nM | IC50 [32]: > 2000 nM | IC50 [33]: > 2000 nM | IC50 [34]: > 2000 nM | IC50 [35]: > 2000 nM | IC50 [36]: > 2000 nM | IC50 [37]: > 2000 nM | IC50 [38]: > 2000 nM | IC50 [39]: > 2000 nM | IC50 [40]: > 2000 nM | IC50 [41]: > 2000 nM | IC50 [42]: > 2000 nM | IC50 [43]: > 2000 nM | IC50 [44]: > 2000 nM | IC50 [45]: > 2000 nM | IC50 [46]: > 2000 nM | IC50 [47]: > 2000 nM | IC50 [48]: 670 nM | IC50 [49]: > 2000 nM

CCN(CC)CCCCNc1ncc2cc(-c3cc(OC)cc(OC)c3)c(NC(=O)NC(C)(C)C)nc2n1 [PD-173074]
IC50 [1]: > 2000 nM | IC50 [2]: > 2000 nM | IC50 [3]: > 2000 nM | IC50 [4]: > 2000 nM | IC50 [5]: 846 nM | IC50 [6]: > 2000 nM | IC50 [7]: > 2000 nM | IC50 [8]: > 2000 nM | IC50 [9]: > 2000 nM | IC50 [10]: > 2000 nM | IC50 [11]: > 2000 nM | IC50 [12]: > 2000 nM | IC50 [13]: > 2000 nM | IC50 [14]: > 2000 nM | IC50 [15]: > 2000 nM | IC50 [16]: > 2000 nM | IC50 [17]: > 2000 nM | IC50 [18]: > 2000 nM | IC50 [19]: > 2000 nM | IC50 [20]: > 2000 nM | IC50 [21]: 330 nM | IC50 [22]: > 2000 nM | IC50 [23]: > 2000 nM | IC50 [24]: > 2000 nM | IC50 [25]: > 2000 nM | IC50 [26]: > 2000 nM | IC50 [27]: > 2000 nM | IC50 [28]: > 2000 nM | IC50 [29]: > 2000 nM | IC50 [30]: > 2000 nM | IC50 [31]: > 2000 nM | IC50 [32]: > 2000 nM | IC50 [33]: > 2000 nM | IC50 [34]: > 2000 nM | IC50 [35]: > 2000 nM | IC50 [36]: > 2000 nM | IC50 [37]: > 2000 nM | IC50 [38]: > 2000 nM | IC50 [39]: > 2000 nM | IC50 [40]: > 2000 nM | IC50 [41]: > 2000 nM | IC50 [42]: > 2000 nM | IC50 [43]: > 2000 nM | IC50 [44]: > 2000 nM | IC50 [45]: > 2000 nM | IC50 [46]: > 2000 nM | IC50 [47]: > 2000 nM | IC50 [48]: > 2000 nM | IC50 [49]: > 2000 nM
